# PubChem BioAssay (NCI)
# “And” between values parts separate entries of the source, which are not always exact repeats. Equal values may be shown once.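 Five concentrations, 48 hours, 96-well plates. GI50 is the concentration that inhibits growth by half. At the TGI there is no net growth.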
# Assays:
# Assay in all cases: growth of human tumour cells (NCI), 48 h
# [1] = test system: COLO 205 colon
# [2] = test system: HCT-15 colon
# [3] = test system: M14 melanoma
# [4] = test system: OVCAR-8 ovarian
# [5] = test system: EKVX NSCLC
# [6] = test system: CCRF-CEM leukemia
# [7] = test system: IGROV1 ovarian
# [8] = test system: HOP-62 NSCLC
# [9] = test system: MALME-3M melanoma
# [10] = test system: OVCAR-4 ovarian
SMILES,TGI [1] [µM],TGI [2] [µM],TGI [3] [µM],TGI [4] [µM],TGI [5] [µM],TGI [6] [µM],TGI [7] [µM],TGI [8] [µM],TGI [9] [µM],TGI [10] [µM],GI50 [1] [µM],GI50 [2],GI50 [3],GI50 [4],GI50 [10] [µM],GI50 [6] [µM],GI50 [7],GI50 [8],GI50 [9] [µM],GI50 [5] [µM]
CN(C)c1cccc(-c2cc(=O)c3ccccc3[nH]2)c1,> 100,> 100,> 100,> 100,> 100,> 100,> 100,> 100,> 100,–,–,–,–,–,–,–,–,–,–,–
Cc1cc(C)nc(NS(=O)(=O)c2ccc(Nc3c4ccccc4nc4c(C(=O)NCCN(C)C)ccc(Cl)c34)cc2)n1,2.64,10.1,10.6,2.69,15.5,15.7,11.7,10.2,–,4.8,–,–,–,–,–,–,–,–,–,–
O=C1CCCCC/C=C2/CC[C@H](Sc3ccccc3)[C@@H]12,> 100,> 100,> 100,> 100,> 100,> 100,–,> 100,> 100,> 100,–,–,–,–,–,–,–,–,–,–
O=C1NC(=NCC(CO)c2ccccc2)S/C1=C\c1ccc2ncccc2c1 (centres undefined),> 25,> 25,> 25,> 25,–,> 25,> 25,> 25,> 25,> 25,7.77,> 21.8 µM,> 25 µM,> 25 µM,> 22.1,19.5,19 µM,23.9 µM,> 25,–
NC(=S)N/N=C(/CC(=O)c1ccc([N+](=O)[O-])cc1)C(=O)Nc1ncc([N+](=O)[O-])s1,> 100,–,> 100,> 100,> 100,> 100,> 100,> 100,> 100,> 100,–,–,–,–,–,–,–,–,–,–
Nc1ccc2c(c1)C(=O)c1ccc(F)cc1-2,> 100,> 100,> 100,> 100,> 100,> 100,> 100,> 100,–,> 100,–,–,–,–,–,–,–,–,–,–
CN(C)CCNC(=O)c1cccc2nc3ccc4ccccc4c3nc12,0.206,0.468,1.14,0.284,0.468,1.34,–,0.352,–,1.02,–,–,–,–,–,–,–,–,–,–
CC(=O)CC(=O)CCCC(=O)Nc1ccc(Cl)cc1C,> 100,> 100,> 100,> 100,> 100,> 100,> 100,–,> 100,> 100,–,–,–,–,–,–,–,–,–,–
N=C(N)n1ncc(Cl)c(Cl)c1=O,3.43,3.99,4.03,4.55,5.07,–,28.7,–,4.98,3.41,–,–,–,–,–,–,–,–,–,–
CCOC(=O)C1=C(Nc2ccccc2)OC/C1=N\NC(=O)Cc1ccccc1,> 50,–,> 50,> 50,> 50,> 50,> 50,> 50,> 50,> 50,–,–,–,–,–,–,–,–,–,–
O=C(c1cc2ccccc2[nH]1)C(O)(c1cc2ccccc2[nH]1)c1cc2ccccc2[nH]1,> 246,> 246,–,> 246,> 246,> 246,> 246,> 246,> 246,–,–,–,–,–,–,–,–,–,–,–
N/C(=N\O)c1ncc(-c2ccc(C(F)(F)F)cc2)c(NC2CCCCCC2)n1,10.6,15.1,13.9,13.4,–,11.8,10.7,23.2,13.9,15,3.44,2.97 µM and 0.955 µM,9.68 µM and 3.24 µM,4.6 µM and 2.19 µM,2.72,2.46,6.72 µM and 2.26 µM,7.5 µM and 6.53 µM,3.81,–
Fc1ccc(-c2nc(-c3nc4ccc(Cl)cc4[nH]3)cc3c2[nH]c2ccccc23)cc1,4.22,15.9,11.4,10.7,–,20.3,12.2,16.5,17.3,17.2,1.89,3.63 µM,3.05 µM,2.88 µM,4.81,3.37,2.89 µM,3.87 µM,4.54,–
C=C1CC[C@@H]2C(C)(C)[C@@H](O)CC[C@@]2(C)[C@@H]1COc1ccc2ccc(=O)oc2c1,–,26.8,27.2,78.7,25.6,68.3,31.9,35.6,31.2,21.6,–,11.5 µM,12.5 µM,–,6.97,–,15.1 µM,15.2 µM,–,10.6
C/C(=N\NC(=O)CC(=O)Nc1ccc(C)cc1)c1cc2ccccc2oc1=O,> 100,> 100,> 100,> 100,> 100,> 100,> 100,> 100,> 100,–,–,–,–,–,–,–,–,–,–,–
Cc1ccc(-n2c3c(c4c(CN5CCCCC5)c(O)ccc42)CCc2ccccc2C3=O)cc1,> 100,> 100,> 100,> 100,> 100,–,> 100,80.7,> 100,–,> 100,> 100 µM,> 100 µM,46 µM,–,–,39.9 µM,27.5 µM,> 100,> 100
Cn1cc(-c2csc(-c3c[nH]c4ncccc34)n2)c2cc(Br)cnc21,–,> 100,> 100,> 100,> 100,> 100,> 100,11.6,> 100,–,–,13.7 µM,4.06 µM,3.72 µM,–,6.81,2.21 µM,2.39 µM,3.01,1.27
CC(C)c1cc(C(C)C)c(S(=O)(=O)NN)c(C(C)C)c1,> 100,> 100,–,> 100,> 100,–,> 100,> 100,> 100,> 100,–,–,–,–,–,–,–,–,–,–
NC(=O)c1ccccc1NC(=O)C(=O)C(C(=O)c1ccc2ccccc2c1)C1OC(=O)c2ccccc21 (centres undefined),24.6,41.5,30,–,75.6,77.6,46.6,24.2,26.3,32.9,–,–,–,–,–,–,–,–,–,–
